According to ChEMBL document CHEMBL1127235, “1,1-diphenyl-3-dialkylamino-1-silacyclopentane derivatives: A new class of potent and selective 5-HT2A antagonists” (Bioorg Med Chem Lett, 1994):

Legend:
[1] = target: 5-hydroxytryptamine receptor 2A (Rattus norvegicus, UniProt P14842); assay: In vitro binding affinity towards serotonin 5-HT2A receptor in rat cortical membranes using [3H]ketanserin as radioligand; assay type: cell membranes
Mus musculus [2] = assay: In vivo inhibitory activity against mescaline-induced head twitches of mice after pretreatment for 15 hours upon peroral administration; assay type: functional; conditions: po
Mus musculus [3] = assay: In vivo inhibitory activity against mescaline-induced head twitches of mice after pretreatment for 1 hour upon subcutaneous administration; assay type: functional; conditions: sc
Mus musculus [4] = assay: In vivo inhibitory activity against DOI-induced head twitches of mice after pretreatment for 15 hours upon peroral administration; assay type: functional
Rattus norvegicus [5] = assay: In vivo inhibitory activity against mescaline-induced head twitches of rat after pretreatment for 16 hours upon peroral administration; assay type: functional
Mus musculus [6] = assay: In vivo inhibitory activity against DOI-induced head twitches of mice after pretreatment for 1 hour upon subcutaneous administration; assay type: functional
Rattus norvegicus [7] = assay: In vivo inhibitory activity against mescaline-induced head twitches of rat after pretreatment for 1 hour upon subcutaneous administration; assay type: functional
Rattus norvegicus [8] = assay: In vivo inhibitory activity against mescaline-induced head twitches of rat after pretreatment for 6 hours upon peroral administration; assay type: functional
[9] = target: T1, Adrenergic receptor alpha-1 (Homo sapiens, UniProt P35348+P25100+P35368); assay: Binding affinity towards Alpha-1 adrenergic receptor; assay type: protein assay
T1 sequence (P35348 whole entry): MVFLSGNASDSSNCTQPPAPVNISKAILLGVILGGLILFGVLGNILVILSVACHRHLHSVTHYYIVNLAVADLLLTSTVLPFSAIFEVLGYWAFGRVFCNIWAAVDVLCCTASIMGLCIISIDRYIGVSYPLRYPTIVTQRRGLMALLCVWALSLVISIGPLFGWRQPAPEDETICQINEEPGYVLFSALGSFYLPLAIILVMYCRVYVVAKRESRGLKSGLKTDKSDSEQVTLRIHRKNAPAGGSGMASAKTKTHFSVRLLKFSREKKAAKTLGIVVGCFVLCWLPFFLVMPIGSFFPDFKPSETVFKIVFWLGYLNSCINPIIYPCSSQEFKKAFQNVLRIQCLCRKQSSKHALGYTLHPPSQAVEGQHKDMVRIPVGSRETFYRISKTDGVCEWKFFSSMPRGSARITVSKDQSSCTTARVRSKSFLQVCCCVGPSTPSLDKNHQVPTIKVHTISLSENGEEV
T1 sequence (P25100 whole entry): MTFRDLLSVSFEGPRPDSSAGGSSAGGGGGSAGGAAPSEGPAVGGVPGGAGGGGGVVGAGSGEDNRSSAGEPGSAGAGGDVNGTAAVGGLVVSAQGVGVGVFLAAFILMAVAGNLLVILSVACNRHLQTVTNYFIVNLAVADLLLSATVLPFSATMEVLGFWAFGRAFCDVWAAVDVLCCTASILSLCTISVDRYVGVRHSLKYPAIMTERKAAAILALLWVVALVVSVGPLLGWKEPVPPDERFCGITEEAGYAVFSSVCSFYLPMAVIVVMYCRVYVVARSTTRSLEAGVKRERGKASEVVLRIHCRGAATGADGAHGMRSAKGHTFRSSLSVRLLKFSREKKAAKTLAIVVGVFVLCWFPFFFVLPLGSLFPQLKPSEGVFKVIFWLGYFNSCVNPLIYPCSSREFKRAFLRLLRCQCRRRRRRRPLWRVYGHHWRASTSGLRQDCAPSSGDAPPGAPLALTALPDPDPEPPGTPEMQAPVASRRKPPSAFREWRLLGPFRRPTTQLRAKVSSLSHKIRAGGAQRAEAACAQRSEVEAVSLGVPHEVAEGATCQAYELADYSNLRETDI
T1 sequence (P35368 whole entry): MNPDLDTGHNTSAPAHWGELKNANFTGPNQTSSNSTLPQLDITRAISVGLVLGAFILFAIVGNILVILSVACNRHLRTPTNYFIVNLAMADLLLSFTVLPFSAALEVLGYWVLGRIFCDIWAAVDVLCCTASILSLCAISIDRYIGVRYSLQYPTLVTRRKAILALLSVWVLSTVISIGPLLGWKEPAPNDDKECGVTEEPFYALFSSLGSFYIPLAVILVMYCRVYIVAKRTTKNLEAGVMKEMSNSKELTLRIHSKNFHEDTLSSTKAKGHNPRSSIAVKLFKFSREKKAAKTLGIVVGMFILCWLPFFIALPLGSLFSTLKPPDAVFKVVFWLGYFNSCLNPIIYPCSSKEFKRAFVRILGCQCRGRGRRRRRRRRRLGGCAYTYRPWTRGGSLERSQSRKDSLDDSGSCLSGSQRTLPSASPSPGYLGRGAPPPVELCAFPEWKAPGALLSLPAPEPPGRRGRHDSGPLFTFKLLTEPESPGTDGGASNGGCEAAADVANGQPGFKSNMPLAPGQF

D(2) dopamine receptor = D(2) dopamine receptor (Homo sapiens, UniProt P14416); assay: Binding affinity towards dopamine D2 receptor
Histamine H1 receptor = Histamine H1 receptor (Homo sapiens, UniProt P35367); assay: Binding affinity towards histamine H1 receptor
[10] = target: T2, Muscarinic acetylcholine receptor M4 (Homo sapiens, UniProt P08173); assay: Binding affinity towards muscarinic receptor
T2 sequence (P08173 whole entry): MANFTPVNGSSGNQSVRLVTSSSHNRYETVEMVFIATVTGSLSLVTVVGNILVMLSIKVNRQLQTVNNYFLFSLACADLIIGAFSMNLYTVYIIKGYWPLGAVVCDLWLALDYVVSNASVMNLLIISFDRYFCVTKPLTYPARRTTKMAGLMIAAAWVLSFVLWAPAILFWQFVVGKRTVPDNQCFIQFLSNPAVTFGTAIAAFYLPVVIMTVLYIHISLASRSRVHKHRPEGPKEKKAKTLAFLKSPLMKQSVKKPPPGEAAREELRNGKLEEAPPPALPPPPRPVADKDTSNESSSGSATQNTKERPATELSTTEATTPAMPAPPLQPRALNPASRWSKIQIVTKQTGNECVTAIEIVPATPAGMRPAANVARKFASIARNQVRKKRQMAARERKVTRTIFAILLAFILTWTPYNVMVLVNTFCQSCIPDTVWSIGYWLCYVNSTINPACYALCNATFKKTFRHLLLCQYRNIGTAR

Rattus norvegicus [11] = assay: In vivo inhibitory activity against mescaline-induced head twitches of rat after pretreatment for 1 hour upon peroral administration; assay type: functional
[12] = Rattus norvegicus, po, read-out: ED50

5-hydroxytryptamine receptor 2A, sequence (P14842 whole entry): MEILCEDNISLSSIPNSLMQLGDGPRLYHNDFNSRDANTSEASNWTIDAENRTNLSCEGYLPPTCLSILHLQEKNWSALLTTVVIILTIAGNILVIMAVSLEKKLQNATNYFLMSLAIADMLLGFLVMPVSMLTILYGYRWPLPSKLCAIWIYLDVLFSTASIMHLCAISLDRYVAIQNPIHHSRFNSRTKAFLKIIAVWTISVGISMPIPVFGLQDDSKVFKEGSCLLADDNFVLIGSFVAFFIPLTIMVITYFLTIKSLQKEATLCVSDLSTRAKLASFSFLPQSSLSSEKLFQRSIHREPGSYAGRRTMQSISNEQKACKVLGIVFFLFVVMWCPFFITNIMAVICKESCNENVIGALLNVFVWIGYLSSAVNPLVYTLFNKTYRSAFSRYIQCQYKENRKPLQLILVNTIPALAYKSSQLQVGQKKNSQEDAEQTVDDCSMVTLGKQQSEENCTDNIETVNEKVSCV
D(2) dopamine receptor, sequence (P14416 whole entry): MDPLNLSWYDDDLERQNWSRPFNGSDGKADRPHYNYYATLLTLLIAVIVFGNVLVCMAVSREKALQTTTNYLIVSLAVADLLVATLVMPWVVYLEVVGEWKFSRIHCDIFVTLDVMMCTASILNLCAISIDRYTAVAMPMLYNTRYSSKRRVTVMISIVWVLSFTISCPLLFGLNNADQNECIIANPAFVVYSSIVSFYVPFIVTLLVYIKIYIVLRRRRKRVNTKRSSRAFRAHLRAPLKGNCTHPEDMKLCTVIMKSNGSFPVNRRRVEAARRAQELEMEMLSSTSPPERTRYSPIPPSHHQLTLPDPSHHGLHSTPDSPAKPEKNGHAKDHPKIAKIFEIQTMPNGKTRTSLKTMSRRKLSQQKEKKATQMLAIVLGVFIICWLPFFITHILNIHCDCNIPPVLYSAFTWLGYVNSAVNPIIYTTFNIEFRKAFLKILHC
Histamine H1 receptor, sequence (P35367 whole entry): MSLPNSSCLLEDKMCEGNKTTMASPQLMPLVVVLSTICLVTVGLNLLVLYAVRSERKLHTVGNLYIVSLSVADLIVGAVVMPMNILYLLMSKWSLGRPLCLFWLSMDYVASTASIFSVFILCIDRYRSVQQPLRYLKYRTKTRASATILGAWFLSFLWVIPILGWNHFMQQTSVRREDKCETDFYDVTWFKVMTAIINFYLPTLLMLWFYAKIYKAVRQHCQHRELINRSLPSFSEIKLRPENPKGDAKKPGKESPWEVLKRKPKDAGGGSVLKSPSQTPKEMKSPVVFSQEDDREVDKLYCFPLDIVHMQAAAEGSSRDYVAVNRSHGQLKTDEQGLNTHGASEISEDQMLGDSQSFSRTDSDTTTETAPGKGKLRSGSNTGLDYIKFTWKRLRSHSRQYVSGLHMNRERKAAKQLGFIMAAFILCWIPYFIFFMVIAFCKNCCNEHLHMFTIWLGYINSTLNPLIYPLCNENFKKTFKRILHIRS

Molecule `Fc1ccc([Si]2(c3ccccc3)CCC(N3CCN(c4ccccc4)CC3)C2)cc1` (stereo in doubt) has an IC50 [1] of 27 nM.

With `Fc1ccccc1N1CCN(C2CC[Si](c3ccccc3)(c3ccccc3)C2)CC1` (stereo unspecified) the IC50 [1] was 100 nM.

Work on `Cc1nc2sccn2c(=O)c1CCN1CCC(=C(c2ccc(F)cc2)c2ccc(F)cc2)CC1` [RITANSERIN] yielded an ED50 (Mus musculus [2]) of 0.09 mg/kg, an ED50 (Mus musculus [3]) of 0.29 mg/kg and an ED50 (Mus musculus [4]; Mus musculus, po, read-out: ED50) of 0.08 mg/kg. For the same molecule, the ED50 (Rattus norvegicus [5]; [12]) was 18.1 mg/kg, the ED50 (Mus musculus [6]; Mus musculus, sc, read-out: ED50) was 0.05 mg/kg and the ED50 (Rattus norvegicus [7]; Rattus norvegicus, sc, read-out: ED50) was 0.38 mg/kg.

Work on `Fc1ccc([Si]2(c3ccc(F)cc3)CCC(N3CCN(c4ccccc4)CC3)C2)cc1` (racemic) yielded an ED50 (Mus musculus [2]) of 0.44 mg/kg, an ED50 (Rattus norvegicus [8]) of 0.48 mg/kg and an IC50 [9] of 86 nM. The IC50 (D(2) dopamine receptor) was 140 nM, the ED50 (Mus musculus [3]) was 1.38 mg/kg and the IC50 (Histamine H1 receptor) was over 1000 nM. The IC50 [1] was 2 nM, the ED50 (Mus musculus [4]) was 0.59 mg/kg and the IC50 [10] was over 1000 nM. It also gave an ED50 (Rattus norvegicus [5]) of 1.25 mg/kg, an ED50 (Mus musculus [6]) of 0.73 mg/kg and an ED50 (Rattus norvegicus [7]) of 10 mg/kg. The ED50 (Rattus norvegicus [11]) was 1.93 mg/kg.

`c1ccc(C2CCN(C3CC[Si](c4ccccc4)(c4ccccc4)C3)CC2)cc1` (stereo unspecified) showed an IC50 [1] of 53 nM.

`Cc1ccc(N2CCN(C3CC[Si](c4ccccc4)(c4ccccc4)C3)CC2)cc1` (stereo unspecified) showed an IC50 [1] of 10 nM.

`c1ccc([Si]2(c3ccccc3)CCC(N3CCN(c4ncccn4)CC3)C2)cc1` (stereo unspecified) was tested, and the IC50 [1] was 80 nM.

With `c1ccc(N2CCN(C3CC[Si](c4ccccc4)(c4ccccc4)C3)CC2)cc1` (stereo unspecified) the ED50 (Mus musculus [2]) was 45 mg/kg, the ED50 (Mus musculus [3]) was 68 mg/kg and the IC50 [1] was 1 nM. The ED50 (Rattus norvegicus [11]; [12]) was 84 mg/kg.

`Fc1ccc(C2=CCN(C3CC[Si](c4ccccc4)(c4ccccc4)C3)CC2)cc1` (stereo unspecified) showed an IC50 [1] of 14 nM.

Work on `Fc1ccc([Si]2(c3ccc(F)cc3)CCC(N3CCN(c4ccccc4)CC3)C2)cc1` (stereo in doubt) yielded an IC50 [1] of 16 nM.

`Fc1ccc([Si]2(c3ccccc3)CCC(N3CCN(c4ccccc4)CC3)C2)cc1` (single isomer, unassigned) showed an IC50 [1] of 20 nM.

In the case of `Cc1cccc(N2CCN(C3CC[Si](c4ccccc4)(c4ccccc4)C3)CC2)c1` (stereo unspecified), the IC50 [1] is reported as 33 nM.

`Fc1cccc(N2CCN(C3CC[Si](c4ccccc4)(c4ccccc4)C3)CC2)c1` (stereo unspecified) showed an IC50 [1] of 3.4 nM.

Molecule `Fc1ccc([Si]2(c3ccc(F)cc3)CCC(N3CCN(c4ccccc4)CC3)C2)cc1` (single isomer, unassigned; (+)) has an ED50 (Rattus norvegicus [8]; [12]) of under 0.63 mg/kg, an IC50 [9] of 100 nM and an IC50 (D(2) dopamine receptor) of 100 nM. The IC50 (Histamine H1 receptor) was over 1000 nM, the IC50 [1] was 3 nM and the ED50 (Mus musculus [4]) was 0.62 mg/kg. It also gave an IC50 [10] of over 1000 nM, an ED50 (Rattus norvegicus [5]; [12]) of under 2.5 mg/kg and an ED50 (Mus musculus [6]) of 0.59 mg/kg. The ED50 (Rattus norvegicus [7]) was 1.56 mg/kg and the ED50 (Rattus norvegicus [11]) was 2.03 mg/kg.

`c1ccc([Si]2(c3ccccc3)CCC(N3CCN(c4ccccn4)CC3)C2)cc1` (stereo unspecified) was tested, and the IC50 [1] was 29 nM.

`Clc1ccc(N2CCN(C3CC[Si](c4ccccc4)(c4ccccc4)C3)CC2)cc1` (stereo unspecified) was tested, and the IC50 [1] was 25 nM.

Molecule `Oc1ccc(N2CCN(C3CC[Si](c4ccccc4)(c4ccccc4)C3)CC2)cc1` (stereo unspecified) has an IC50 [1] of 46 nM.

In the case of `Fc1ccc([Si]2(c3ccc(F)cc3)CCC(N3CCN(c4ccccc4)CC3)C2)cc1` (single isomer, unassigned; (-)), the IC50 [1] is reported as 25 nM, the ED50 (Mus musculus [4]) is reported as 10.5 mg/kg and the ED50 (Mus musculus [6]) is reported as over 5 mg/kg. For the same molecule, the ED50 (Rattus norvegicus [7]) was 10.25 mg/kg and the ED50 (Rattus norvegicus [11]) was 10.25 mg/kg.

Work on `Fc1ccc(N2CCN(C3CC[Si](c4ccccc4)(c4ccccc4)C3)CC2)cc1` (stereo unspecified) yielded an ED50 (Mus musculus [2]) of 15 mg/kg, an ED50 (Mus musculus [3]) of 10 mg/kg and an IC50 [1] of 0.9 nM.

Molecule `Fc1ccc(N2CCN(C3CC[Si](c4ccc(F)cc4)(c4ccc(F)cc4)C3)CC2)cc1` (stereo unspecified) has an IC50 [1] of 18 nM.
